Structures can show the parent of a compound that is named as a salt. Where two headings read alike, the source gives them in different places.
What was measured:
C. elegans = type: in vivo
Description: Nematode worms that are placed in liquid culture will move in such a way that they maintain a more or less even (or homogeneous) distribution throughout the culture. Nematode worms that are defective in movement will precipitate to the bottom in liquid culture.
Advanced multi-well plate readers are able to detect sub-regions of the wells of multi-well plates. By using these plate readers it is possible to take measurements in selected areas of the surface of the wells of the multi-well plates. If the area of measurement is centralized, so that only the middle of the well is measured, a difference in nematode autofluorescence (fluorescence which occurs in the absence of any external marker molecule) or optical density can be observed in the wells containing nematodes that move normally as compared to wells containing nematodes that are defective for movement. For the wells containing the nematodes that move normally, a low level of autofluorescence or optical density will be observed, whilst a high level of autofluorescence or optical density can be observed in the wells that contain the nematodes that are defective in movement. Optical density is measured using a variation of the platelet aggregation assay, which is well known in the art. Using the MRX revelation device from Dynex (USA), optical density can be measured at multiple points per well, showing the precipitation pattern of the nematodes.
In an adaptation of the movement assay, autofluorescence or optical density measurements can be taken in two areas of the surface of the well, one measurement in the centre of the well, and on measurement on the edge of the well. Comparing the two measurements gives analogous results as in the case if only the centre of the well is measured but the additional measurement of the edge of the well results in an extra control and somewhat more distinct results.

C. elegans pharynx = test: Pharynx pumping assay (calcein-AM), strain not specified: dilution series, insecticides, Tocris library; type: in vivo; conditions: for effect on pharynx pumping rate, dose-response curve: concentration range from less than 1 μM up to 100 μM; for effect of compounds of known insecticidal activity on the pharynx pumping rate: FIGS. 18 to 21
Procedure: The pumping rate of the pharynx is measured indirectly by adding a marker molecule precursor such as calcein-AM to the medium and measuring the formation of marker dye in the C. elegans gut. Calcein-AM is cleaved by esterases present in the C. elegans gut to release calcein, which is a fluorescent molecule. […] Therefore by measuring the accumulation of calcein in the nematode gut, detectable by fluorescence, it is possible to determine the pumping rate of the pharynx.
To perform the pharynx pumping screen with calcein-AM, a concentration of between 1 and 100 μM calcein-AM is added into the medium. Preferably 5 to 10 μM calcein-AM is used. Fluorescence is measured using a multi-well plate reader (Victor2, Wallac Oy, Finland) with following settings: Ex/Em=485/530.
To determine the sensitivity of the pharynx pumping assay, dilution series were made for some chemical substances. These include the chemicals clomipramine, tamoxifen, BP554, pimazide and thapsigargin. A concentration range was made from less than 1 μM up to 100 μM, and the pumping assay was repeated as described in previous examples.

Molecule | movement assay reading, first number column (no head printed) (C. elegans; Table 10 c3) | movement assay reading, second number column (no head printed) (C. elegans; Table 10 c4) | hit call: detectable change in the movement behaviour (C. elegans; Table 10 c7) | other results
7-(Dimethylcarbamoyloxy)-6-phenylpyrrolo | 14278 | 32900 | HIT | –
NC(CCCCCC(=O)O)C(=O)O (racemic) [DL-2-Aminosuberic acid] | – | – | – | hit call: detectable change in the movement behaviour (C. elegans; in vivo): HIT; movement assay reading, first number column (no head printed) (C. elegans; in vivo): 17141; movement assay reading, second number column (no head printed) (C. elegans; in vivo): 33518
c1ccc(-c2cnc(-c3ccccc3)o2)cc1 [2,5-diphenyloxazole] | – | – | – | effect on pumping rate of the pharynx (C. elegans pharynx; both in wild-type worms and in constitutive pumping worms): inhibitor of the pumping rate of the pharynx
N[C@H](C(=O)O)[C@H](CC(=O)O)c1ccc(Cl)cc1 [(2S,3R)-Chloropheg] | 21514 | 48736 | HIT | –
CC(=O)O[C@H](CC(=O)[O-])C[N+](C)(C)C [(n)-Acetylcarnitine] | 23457 | 44156 | HIT | –
CC#CCOC(=O)C1=CCCN(C)C1 [Arecaidine but-2-ynyl ester] | 20002 | 37675 | HIT | –
c1ccc(N2CCN(CCCOc3ccc4c(c3)OCO4)CC2)cc1 [BP554] | – | – | – | effect on pharynx pumping rate, dose-response curve (C. elegans pharynx): inhibitors
CC(C)(Oc1ccc(Cl)cc1)C(=O)O [Clofibric acid] | 22933 | 40916 | HIT | –
CN(C)CCCN1c2ccccc2CCc2ccc(Cl)cc21 [Clomipramine] | – | – | – | effect on pharynx pumping rate, dose-response curve (C. elegans pharynx): enhancer
NC1(C(=O)O)CCCC1 [Cycloleucine] | 19234 | 36560 | HIT | –
NC(CCCP(=O)(O)O)C(=O)O [D-AP5] | 19717 | 41697 | HIT | –
C[S+](C)[O-] [DMSO] | – | – | – | toxic effect in pharynx pumping dose-response curve (C. elegans pharynx; solvent, at higher concentrations (FIG. 5)): toxic effect
CCN(CC)CCOc1ccc(Cc2ccccc2)cc1 [DPPE] | 20365 | 43629 | HIT | –
ClC1=C(Cl)[C@]2(Cl)[C@@H]3[C@@H]4C[C@@H]([C@H]5O[C@@H]45)[C@@H]3[C@@]1(Cl)C2(Cl)Cl [Dieldrin] | – | – | – | effect of compounds of known insecticidal activity on the pharynx pumping rate (C. elegans pharynx): reduction in the pharynx pumping rate
CN(C)CCC=C1c2ccccc2COc2ccccc21 [Doxepin] | – | – | – | effect on pharynx pumping (C. elegans pharynx; general statement): enhancer of pharynx pumping
CN(C)CCCn1cc(C2=C(c3c[nH]c4ccccc34)C(=O)NC2=O)c2ccccc21 [GF 109203X] | 15685 | 34448 | HIT | –
COc1ccc(CNC(=O)/C=C/c2ccc3[nH]cc(CCN(C)C)c3c2)cc1 [GR 46611] | 15815 | 33199 | HIT | –
CCCCCCC(C)(C)c1cc(O)c2c(c1)OC(C)(C)[C@@H]1CC=C(CO)C[C@@H]21 [HU 210] | 15481 | 33514 | HIT | –
Cc1nccc2c1[nH]c1ccccc12 [Harmane HCl] | 1843115 | 555251 | – | –
O=C(O)c1cc2ccccc2[nH]1 [Indole-2-carboxylic acid] | 19362 | 43403 | HIT | –

Molecule | movement assay reading, first number column (no head printed) (C. elegans; Table 10 c3) | movement assay reading, second number column (no head printed) (C. elegans; Table 10 c4) | hit call: detectable change in the movement behaviour (C. elegans; Table 10 c7) | other results
CC(=O)N1CCN(c2ccc(OCC3COC(Cn4ccnc4)(c4ccc(Cl)cc4Cl)O3)cc2)CC1 (centres unmarked) [Ketoconazole] | 15803 | 33531 | HIT | –
O=c1[nH]c2cc(Cl)ccc2c(O)c1-c1cccc(Oc2ccccc2)c1 [L-701,324] | 14647 | 32476 | HIT | –
N[C@@H](CP(=O)(O)O)C(=O)O [L-AP3] | 22073 | 41858 | HIT | –
NC(CCP(=O)(O)O)C(=O)O [L-AP4] | 19824 | 39523 | HIT | –
N[C@@H](CCCP(=O)(O)O)C(=O)O [L-AP5] | 21446 | 42393 | HIT | –
CC(N)(COP(=O)(O)Oc1ccccc1)C(=O)O (centres unmarked) [MSOPPE] | 23760 | 44614 | HIT | –
Oc1ccc2c3c1O[C@H]1c4c(c5ccccc5n4Cc4ccccc4)C[C@@]4(O)[C@@H](C2)N(CC2CC2)CC[C@]314 [N-Benzyl naltrindole] | 14932 | 31760 | HIT | –
NCC(O)COc1cccc2ccccc12 (centres unmarked) [N-desisopropyl propanolol] | 23737 | 43102 | HIT | –
N[C@@H](COP(=O)(O)O)C(=O)O [O-Phospho-L-serine] | 20292 | 41086 | HIT | –
COc1cc2nc(N3CCN(C(=O)c4ccco4)CC3)nc(N)c2cc1OC [Prazosin] | 94689 | 113608 | HIT | –
OCC(O)COc1cccc2ccccc12 (centres unmarked) [Propanolol glycol] | 17134 | 34849 | – | –
CC(C)(Cc1c[nH]c2ccc(Cl)cc12)NCCOc1ccccc1OCC1CC1 [RS 17053] | 14439 | 32050 | HIT | –
C=C(C)[C@H]1Cc2c(ccc3c2O[C@@H]2COc4cc(OC)c(OC)cc4[C@@H]2C3=O)O1 [Rotenone] | – | – | – | effect of compounds of known insecticidal activity on the pharynx pumping rate (C. elegans pharynx): reduction in the pharynx pumping rate
CC(=O)N[C@@H](CC(=O)N[C@@H](CCC(=O)O)C(=O)O)C(=O)O [Spaglumic acid] | 20295 | 38417 | HIT | –
CP(=O)(O)C1=CCNCC1 [TPMPA] | 21792 | 120778 | HIT | –
C=CC(N)CCC(=O)O (centres unmarked) [Vigabatrin] | 20828 | 61410 | HIT | –
COc1ccc(CCN(C)CCc2ccc(OC)c(OC)c2)cc1OC [YS-035] | 21415 | 42457 | HIT | –
O=C(O)[C@@H]1C[C@H](C(=O)O)N1 [cis-Azetidine-2,4-dicarboxylic acid] | 19503 | 40568 | HIT | –
O=C(O)[C@@H]1C[C@@H](C(=O)O)N1 [tADA] | 16096 | 32342 | HIT | –
S(-)-Atenolol | 18176 | 36336 | HIT | –
